Laboratory results as given in patent publication US20080269251A1, “Substituted Pyrazinone Derivatives as Alpha2C-Adrenoreceptor Antagonists” (priority 2005, published 2008).

Experiments:
[1] = target: T1, 5HT-transporter (Homo sapiens, UniProt P31645); experiment: Binding experiment for the 5HT-transporter ([3H]paroxetine, human platelet membranes); details: [3H]paroxetine 0.5 nM, 60 min at 25° C.; for IC50: read-out: h-5HTT pIC50 (converted)
T1 construct: Human platelet membranes (Oceanix Biosciences Corporation, Hanover, Md., USA) were thawed; tissue Oceanix Biosciences Corporation, Hanover, Md., USA; host or cells: human platelet membranes
T1 sequence (P31645 whole entry): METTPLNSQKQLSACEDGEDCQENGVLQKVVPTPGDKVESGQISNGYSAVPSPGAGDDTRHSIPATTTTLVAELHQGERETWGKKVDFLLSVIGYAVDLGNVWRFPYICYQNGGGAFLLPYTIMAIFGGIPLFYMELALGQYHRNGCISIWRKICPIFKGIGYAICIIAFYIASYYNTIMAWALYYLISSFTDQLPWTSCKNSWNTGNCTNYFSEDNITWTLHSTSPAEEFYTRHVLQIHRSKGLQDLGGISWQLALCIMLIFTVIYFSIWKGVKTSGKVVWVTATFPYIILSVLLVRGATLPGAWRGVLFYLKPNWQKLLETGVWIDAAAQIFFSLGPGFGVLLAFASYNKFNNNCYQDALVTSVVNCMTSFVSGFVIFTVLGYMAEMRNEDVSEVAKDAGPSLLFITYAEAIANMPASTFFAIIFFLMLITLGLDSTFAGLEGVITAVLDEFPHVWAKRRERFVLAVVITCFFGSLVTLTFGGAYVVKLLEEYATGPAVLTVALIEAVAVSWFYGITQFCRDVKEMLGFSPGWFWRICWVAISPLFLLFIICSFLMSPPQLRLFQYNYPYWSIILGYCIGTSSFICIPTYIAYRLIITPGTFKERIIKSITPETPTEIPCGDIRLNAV
Procedure, shortened: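 Competition binding of [3H]paroxetine to human platelet membranes in Tris-HCl 50 mM with 120 mM NaCl and 5 mM KCl; bound radioligand separated by GF/B filtration and counted.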

[2] = target: T2, human adrenergic-α2A receptor (Homo sapiens, UniProt P08913); experiment: Radioligand binding experiment for hα2A-adrenergic receptor ([3H]raulwolscine); details: [3H]raulwolscine 1 nM, 60 minutes at 25° C.; for IC50: read-out: h-α2A pIC50 (converted)
T2 construct: expressed in transfected cells; host or cells: CHO cells, stably transfected; membrane preparation
T2 sequence (P08913 1-465): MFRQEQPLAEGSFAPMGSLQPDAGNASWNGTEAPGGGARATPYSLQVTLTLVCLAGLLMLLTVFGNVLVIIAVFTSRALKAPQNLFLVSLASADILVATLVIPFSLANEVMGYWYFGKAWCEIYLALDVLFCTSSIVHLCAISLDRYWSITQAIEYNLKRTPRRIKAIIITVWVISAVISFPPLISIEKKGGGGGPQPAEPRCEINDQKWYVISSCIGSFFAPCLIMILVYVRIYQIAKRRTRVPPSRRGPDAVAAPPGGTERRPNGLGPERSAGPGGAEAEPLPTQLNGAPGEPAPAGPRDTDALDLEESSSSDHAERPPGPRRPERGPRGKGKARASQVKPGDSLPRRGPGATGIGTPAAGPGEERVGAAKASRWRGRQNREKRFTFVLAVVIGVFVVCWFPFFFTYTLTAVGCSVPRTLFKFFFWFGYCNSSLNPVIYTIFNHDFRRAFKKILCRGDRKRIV
Procedure, shortened: (§1)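 CHO membranes expressing human α2A or α2C receptors were incubated with 1 nM [^3H]raulwolscine for 60 min at 25° C in glycylglycine 25 mM, pH 8.0, then filtered. Nonspecific binding was defined with 1 μM oxymetazoline for α2A and 1 μM spiroxatrine for α2C. pIC50 came from sigmoidal competition curves.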

[3] = target: T3, human adrenergic-α2C receptor (Homo sapiens, UniProt P18825); experiment: Radioligand binding experiment for hα2C-adrenoceptor ([3H]raulwolscine); details: [3H]raulwolscine 1 nM, 60 minutes at 25° C.; for IC50: read-out: h-α2C pIC50 (converted)
T3 construct: expressed in transfected cells; host or cells: CHO cells, stably transfected; membrane preparation
T3 sequence (P18825 1-462): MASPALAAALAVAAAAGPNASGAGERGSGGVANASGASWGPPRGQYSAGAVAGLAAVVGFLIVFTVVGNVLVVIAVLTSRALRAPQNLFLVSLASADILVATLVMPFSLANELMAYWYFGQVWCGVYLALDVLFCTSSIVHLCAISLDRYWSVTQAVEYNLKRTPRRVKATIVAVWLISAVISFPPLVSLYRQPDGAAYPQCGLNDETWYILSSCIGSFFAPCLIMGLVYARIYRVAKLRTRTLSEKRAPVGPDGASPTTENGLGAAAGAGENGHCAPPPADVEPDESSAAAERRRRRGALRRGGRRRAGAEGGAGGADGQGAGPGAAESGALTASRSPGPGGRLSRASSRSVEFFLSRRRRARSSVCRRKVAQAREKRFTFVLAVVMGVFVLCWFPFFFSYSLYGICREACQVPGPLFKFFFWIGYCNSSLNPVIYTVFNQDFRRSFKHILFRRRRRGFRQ
Procedure, shortened: as §1

SMILES	h-5HTT pIC50 [1]	h-α2A pIC50 [2]	h-α2C pIC50 [3]	IC50 [1] [nM]	IC50 [2] [nM]	IC50 [3] [nM]
CN1CCN(Cc2ccc(-n3ccnc(NC4CCN(Cc5ccc6ccccc6c5)CC4)c3=O)cc2)CC1 [2-02]	8.3	6.9	7.8			
CN1CCN(c2ccc(-n3ccnc(NC4CCN(Cc5ccc6ccccc6c5)CC4)c3=O)cc2)CC1 [2-03]				12.6	100	25.1
O=C1CN(Cc2ccc(-n3ccnc(NC4CCN(Cc5ccc6ccccc6c5)CC4)c3=O)cc2)CCN1 [2-04]				31.6	126	25.1
O=C(Cn1ccnc(NC2CCN(Cc3ccc4ccccc4c3)CC2)c1=O)N1CCN(c2ccccc2)CC1 [2-05]				200	251	39.8
O=C(Cn1ccnc(NC2CCN(Cc3ccc4ccccc4c3)CC2)c1=O)N1CCN(Cc2ccccc2)CC1 [2-06]				316	398	7.94
Cc1ccc(N2CCN(C(=O)Cn3ccnc(NC4CCN(Cc5ccc6ccccc6c5)CC4)c3=O)CC2)cc1C [2-07]				63.1	398	79.4
O=c1c(NC2CCN(Cc3ccc4ccccc4c3)CC2)nccn1CCN1CCOCC1 [2-09]				501	1000	158
O=c1c(NC2CCN(Cc3ccc4ccccc4c3)CC2)nccn1-c1ccc(CN2CCCCC2)cc1 [2-11]				7.94	200	10
O=c1c(NC2CCN(Cc3ccc4ccccc4c3)CC2)nccn1-c1ccc(CN2CCC(F)CC2)cc1 [2-12]	8.4	7.3	8.1			
O=c1c(NC2CCN(Cc3ccc4ccccc4c3)CC2)nccn1-c1ccc(CN2CCC(F)CC2)c(F)c1 [2-13]				6.31	63.1	3.98
O=c1c(NC2CCN(Cc3ccc4ccccc4c3)CC2)nccn1-c1ccc(CN2CCC(O)CC2)cc1 [2-14]				5.01	158	10
O=C(Cn1ccnc(NC2CCN(Cc3ccc4ccccc4c3)CC2)c1=O)N1CCC(Cc2ccccc2)CC1 [2-15]				200	251	31.6
O=C(Cn1ccnc(NC2CCN(Cc3ccc4ccccc4c3)CC2)c1=O)N1CCC(C(F)(F)F)CC1 [2-16]				1260	501	126
O=c1c(NC2CCN(Cc3ccc4ccccc4c3)CC2)nccn1-c1ccc(CN2CCC(Oc3cccnc3)CC2)cc1 [2-17]	8.6	6.6	8.2			
O=c1c(NC2CCN(Cc3ccc4ccccc4c3)CC2)nccn1CCO [3-01]				100	251	25.1
O=c1c(NC2CCN(Cc3ccc4ccccc4c3)CC2)nccn1CCCO [3-02]				200	631	100
O=c1c(NC2CCN(Cc3ccc4ccccc4c3)CC2)nccn1CCCCO [3-03]				158	398	63.1
COC(=O)CCn1ccnc(NC2CCN(Cc3ccc4ccccc4c3)CC2)c1=O [3-04]				398	1000	79.4
CCOC(=O)CCCn1ccnc(NC2CCN(Cc3ccc4ccccc4c3)CC2)c1=O [3-06]				79.4	200	63.1
CCOC(=O)CCCCn1ccnc(NC2CCN(Cc3ccc4ccccc4c3)CC2)c1=O [3-08]				10	79.4	12.6
O=c1c(NC2CCN(Cc3ccc4ccccc4c3)CC2)nccn1CCOc1ccccc1 [3-09]				12.6	316	100
O=c1c(NC2CCN(Cc3ccc4ccccc4c3)CC2)nccn1CCCOc1ccccc1 [3-10]				15.8	126	50.1
O=c1c(NC2CCN(Cc3ccc4ccccc4c3)CC2)nccn1CCCOCc1ccccc1 [3-11]				20	251	25.1
O=c1c(NC2CCN(Cc3ccc4ccccc4c3)CC2)nccn1CCOC1CCCCO1 (stereo not drawn) [3-12]				79.4	631	79.4
